Where two headings read alike, the source gives them in different places.
Target: T1, ER (Homo sapiens, UniProt P03372)
T1 construct: host or cells: T47D and MCF7 human breast cancer cells
T1 sequence (P03372 1-595): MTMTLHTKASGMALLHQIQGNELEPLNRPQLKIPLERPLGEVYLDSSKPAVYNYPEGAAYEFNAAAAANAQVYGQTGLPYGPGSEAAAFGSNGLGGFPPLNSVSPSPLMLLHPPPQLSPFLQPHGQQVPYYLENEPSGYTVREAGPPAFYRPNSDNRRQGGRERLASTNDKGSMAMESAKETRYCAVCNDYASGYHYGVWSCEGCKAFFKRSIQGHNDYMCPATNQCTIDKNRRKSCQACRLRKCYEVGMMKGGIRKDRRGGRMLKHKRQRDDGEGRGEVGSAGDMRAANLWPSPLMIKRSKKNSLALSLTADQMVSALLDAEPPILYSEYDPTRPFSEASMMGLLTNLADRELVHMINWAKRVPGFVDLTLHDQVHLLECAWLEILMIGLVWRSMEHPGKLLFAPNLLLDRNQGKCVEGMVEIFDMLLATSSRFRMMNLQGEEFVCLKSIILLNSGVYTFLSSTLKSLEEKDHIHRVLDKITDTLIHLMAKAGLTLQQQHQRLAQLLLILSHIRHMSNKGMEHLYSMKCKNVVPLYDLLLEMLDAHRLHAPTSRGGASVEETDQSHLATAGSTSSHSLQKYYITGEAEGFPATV
Assay: ER degradation activity, in-cell western blot analysis in T47D cells
Assay type: cell-based
Summary of the method: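 Read-out is near-infrared fluorescence from an in-cell western, expressed as ER percentage relative to untreated and DMSO controls taken as 100%. T47D breast cancer cells received compound for 16 h in 0.5% DMSO.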

[1] = 16 hours, Table A does not say which cell line (T47D or MCF7), read-out: Potency (DC50)
[2] = compounds 16 hours, Table A does not say whether T47D or MCF7, read-out: Potency (DC50)

SMILES | DC50 [1] | DC50 [2]
O=C1CCC(N2C(=O)c3cc4c(cc3C2=O)CN(CC(=O)N2CC3(CCN(c5ccc([C@@H]6c7ccc(O)cc7CC[C@@H]6c6ccccc6)c(F)c5)CC3)C2)C4)C(=O)N1 (mixture of isomers) [E 174, Rac-2-(2,6-dioxopiperidin-3-yl)-6-(2-(7-(3-fluoro-4-((1S,2S)-6-hydroxy-2-phenyl-1,2,3,4-tetrahydronaphthalen-1-yl)phenyl)-2,7-diazaspiro[3.5]nonan-2-yl)-2-oxoethyl)-6,7-dihydropyrrolo[3,4-f]isoindole-1,3(2H,5H)-dione] | 10 to 100 nM | –
C[C@@H]1Cc2c([nH]c3ccccc23)[C@@H](c2c(F)cc(N3CCC(CN4CCC(CN5Cc6cc7c(cc6C5)C(=O)N(C5CCC(=O)NC5=O)C7=O)CC4)CC3)cc2F)N1CC(F)F (stereo partly drawn) [E 128, 6-((1-((1-(4-((1R,3R)-2-(2,2-difluoroethyl)-3-methyl-2,3,4,9-tetrahydro-1H-pyrido[3,4-b]indol-1-yl)-3,5-difluorophenyl)piperidin-4-yl)methyl)piperidin-4-yl)methyl)-2-(2,6-dioxopiperidin-3-yl)-6,7-dihydropyrrolo[3,4-f]isoindole-1,3(2H,5H)-dione] | < 10 nM | –
O=C1CCC(N2C(=O)c3cc4c(cc3C2=O)CN(CC2CCC3(CC2)CN(C(=O)c2ccc([C@@H]5c6ccc(O)cc6CC[C@@H]5c5ccccc5)cc2)C3)C4)C(=O)N1 (stereo partly drawn) [E 493, 2-(2,6-dioxopiperidin-3-yl)-6-((2-(4-((1R,2S)-6-hydroxy-2-phenyl-1,2,3,4-tetrahydronaphthalen-1-yl)benzoyl)-2-azaspiro[3.5]nonan-7-yl)methyl)-6,7-dihydropyrrolo[3,4-f]isoindole-1,3(2H,5H)-dione] | – | > 100 nM
O=C1CCC(N2C(=O)c3cc4c(cc3C2=O)CN(C(=O)[C@H]2CC[C@H](CN3CC(Nc5ccc([C@@H]6c7ccc(O)cc7CC[C@@H]6c6ccccc6)cc5)C3)CC2)C4)C(=O)N1 (stereo partly drawn) [E 363, 2-(2,6-dioxopiperidin-3-yl)-6-((1R,4r)-4-((3-((4-((1R,2S)-6-hydroxy-2-phenyl-1,2,3,4-tetrahydronaphthalen-1-yl)phenyl)amino)azetidin-1-yl)methyl)cyclohexane-1-carbonyl)-6,7-dihydropyrrolo[3,4-f]isoindole-1,3(2H,5H)-dione] | < 10 nM | –
C[C@@H]1Cc2c([nH]c3ccccc23)[C@@H](c2c(F)cc(N3CCCC(CN4CCC(C(=O)N5Cc6cc7c(cc6C5)C(=O)N(C5CCC(=O)NC5=O)C7)CC4)C3)cc2F)N1CC(F)F (stereo partly drawn) [E 92, 3-(6-(1-((1-(4-((1R,3R)-2-(2,2-difluoroethyl)-3-methyl-2,3,4,9-tetrahydro-1H-pyrido[3,4-b]indol-1-yl)-3,5-difluorophenyl)piperidin-3-yl)methyl)piperidine-4-carbonyl)-1-oxo-3,5,6,7-tetrahydropyrrolo[3,4-f]isoindol-2(1H)-yl)piperidine-2,6-dione] | < 10 nM | –
O=C1CCC(N2C(=O)c3cc4c(cc3C2=O)CN(C2CCC(C(=O)N3CCCC(Oc5ccc([C@@H]6c7ccc(O)cc7CC[C@@H]6c6ccccc6)cc5)C3)CC2)C4)C(=O)N1 (mixture of isomers) [E 23, Rac-2-(2,6-dioxopiperidin-3-yl)-6-(4-(3-(4-((1R,2S)-6-hydroxy-2-phenyl-1,2,3,4-tetrahydronaphthalen-1-yl)phenoxy)piperidine-1-carbonyl)cyclohexyl)-6,7-dihydropyrrolo[3,4-f]isoindole-1,3(2H,5H)-dione] | 10 to 100 nM | –
C[C@@H]1Cc2c([nH]c3ccccc23)[C@@H](c2c(F)cc(N3CC(CC(=O)N4CC(N5Cc6cc7c(cc6C5)C(=O)N(C5CCC(=O)NC5=O)C7)C4)C3)cc2F)N1CC(F)F (stereo partly drawn) [E 134, 3-(6-(1-(2-(1-(4-((1R,3R)-2-(2,2-difluoroethyl)-3-methyl-2,3,4,9-tetrahydro-1H-pyrido[3,4-b]indol-1-yl)-3,5-difluorophenyl)azetidin-3-yl)acetyl)azetidin-3-yl)-1-oxo-3,5,6,7-tetrahydropyrrolo[3,4-f]isoindol-2(1H)-yl)piperidine-2,6-dione] | 10 to 100 nM | –
C[C@@H]1Cc2c([nH]c3ccccc23)[C@@H](c2c(F)cc(N3CCC(CN4Cc5cc6c(cc5C4)C(=O)N(C4CCC(=O)NC4=O)C6=O)CC3)cc2F)N1CC(F)F (stereo partly drawn) [E 89, 6-((1-(4-((1R,3R)-2-(2,2-difluoroethyl)-3-methyl-2,3,4,9-tetrahydro-1H-pyrido[3,4-b]indol-1-yl)-3,5-difluorophenyl)piperidin-4-yl)methyl)-2-(2,6-dioxopiperidin-3-yl)-6,7-dihydropyrrolo[3,4-f]isoindole-1,3(2H,5H)-dione] | > 100 nM | –
C[C@@H]1Cc2cc(O)ccc2[C@@H](c2c(F)cc(N3CCC(C(=O)N4CCC(N5Cc6cc7c(cc6C5)C(=O)N(C5CCC(=O)NC5=O)C7=O)CC4)CC3)cc2F)N1CC(F)F (stereo partly drawn) [E 269, 6-(1-(1-(4-((1S,3R)-2-(2,2-difluoroethyl)-6-hydroxy-3-methyl-1,2,3,4-tetrahydroisoquinolin-1-yl)-3,5-difluorophenyl)piperidine-4-carbonyl)piperidin-4-yl)-2-(2,6-dioxopiperidin-3-yl)-6,7-dihydropyrrolo[3,4-f]isoindole-1,3(2H,5H)-dione] | > 100 nM | –
O=C1CCC(N2C(=O)c3cc4c(cc3C2=O)CN(C2CCC3(CC2)CCN(c2ccc([C@@H]5c6ccc(O)cc6CC[C@@H]5c5ccccc5)cc2)CC3)C4)C(=O)N1 (stereo partly drawn) [E 160, 2-(2,6-dioxopiperidin-3-yl)-6-(3-(4-((1R,2S)-6-hydroxy-2-phenyl-1,2,3,4-tetrahydronaphthalen-1-yl)phenyl)-3-azaspiro[5.5]undecan-9-yl)-6,7-dihydropyrrolo[3,4-f]isoindole-1,3(2H,5H)-dione] | > 100 nM | –
C[C@@H]1Cc2c([nH]c3ccccc23)[C@@H](c2c(F)cc(N3CCC(C(=O)N4CC(CN5Cc6cc7c(cc6C5)C(=O)N(C5CCC(=O)NC5=O)C7=O)C4)CC3)cc2F)N1CC(F)F (stereo partly drawn) [E 234, 6-((1-(1-(4-((1R,3R)-2-(2,2-difluoroethyl)-3-methyl-2,3,4,9-tetrahydro-1H-pyrido[3,4-b]indol-1-yl)-3,5-difluorophenyl)piperidine-4-carbonyl)azetidin-3-yl)methyl)-2-(2,6-dioxopiperidin-3-yl)-6,7-dihydropyrrolo[3,4-f]isoindole-1,3(2H,5H)-dione] | 10 to 100 nM | –
C[C@@H]1Cc2c([nH]c3ccccc23)[C@@H](c2ncc(C3=CCC(C(=O)N4CCC(N5Cc6cc7c(cc6C5)C(=O)N(C5CCC(=O)NC5=O)C7=O)CC4)CC3)cc2F)N1CC(C)(C)F (stereo partly drawn) [E 484, 2-(2,6-dioxopiperidin-3-yl)-6-(1-(4-(5-fluoro-6-((1S,3R)-2-(2-fluoro-2-methylpropyl)-3-methyl-2,3,4,9-tetrahydro-1H-pyrido[3,4-b]indol-1-yl)pyridin-3-yl)cyclohex-3-ene-1-carbonyl)piperidin-4-yl)-6,7-dihydropyrrolo[3,4-f]isoindole-1,3(2H,5H)-dione] | – | > 100 nM
C[C@@H]1Cc2cc(O)ccc2[C@@H](c2c(F)cc(N3CCN(C(=O)[C@H]4CC[C@H](N5Cc6cc7c(cc6C5)C(=O)N(C5CCC(=O)NC5=O)C7=O)CC4)CC3)cc2F)N1CC(F)F (mixture of isomers) [E 353, rac-6-((1S,4r)-4-(4-(4-((1S,3R)-2-(2,2-difluoroethyl)-6-hydroxy-3-methyl-1,2,3,4-tetrahydroisoquinolin-1-yl)-3,5-difluorophenyl)piperazine-1-carbonyl)cyclohexyl)-2-(2,6-dioxopiperidin-3-yl)-6,7-dihydropyrrolo[3,4-f]isoindole-1,3(2H,5H)-dione] | > 100 nM | –
C[C@@H]1Cc2c(ccc3[nH]ncc23)[C@@H](c2c(F)cc(NC3CN(C(=O)[C@H]4CC[C@H](N5Cc6cc7c(cc6C5)C(=O)N(C5CCC(=O)NC5=O)C7=O)CC4)C3)cc2F)N1CC(F)F (stereo partly shown) [E 425] | – | < 10 nM
O=C1CCC(N2C(=O)c3cc4c(cc3C2=O)CN([C@H]2CC[C@@H](NC3CN(c5ccc([C@@H]6c7ccc(O)cc7CC[C@@H]6c6ccccc6)cc5)C3)CC2)C4)C(=O)N1 (stereo partly drawn) [E 340, 2-(2,6-dioxopiperidin-3-yl)-6-((1S,4s)-4-((1-(4-((1R,2S)-6-hydroxy-2-phenyl-1,2,3,4-tetrahydronaphthalen-1-yl)phenyl)azetidin-3-yl)amino)cyclohexyl)-6,7-dihydropyrrolo[3,4-f]isoindole-1,3(2H,5H)-dione] | > 100 nM | –
C[C@@H]1Cc2c([nH]c3ccccc23)[C@@H](c2c(F)cc(N3CC4(CCN(CC(=O)N5Cc6cc7c(cc6C5)C(=O)N(C5CCC(=O)NC5=O)C7=O)CC4)C3)cc2F)N1CC(F)F (stereo partly drawn) [E 97, 6-(2-(2-(4-((1R,3R)-2-(2,2-difluoroethyl)-3-methyl-2,3,4,9-tetrahydro-1H-pyrido[3,4-b]indol-1-yl)-3,5-difluorophenyl)-2,7-diazaspiro[3.5]nonan-7-yl)acetyl)-2-(2,6-dioxopiperidin-3-yl)-6,7-dihydropyrrolo[3,4-f]isoindole-1,3(2H,5H)-dione] | 10 to 100 nM | –
